Experimental data published in PMC12175177 (Frontiers in Pharmacology, 2025).
Values after ≈ are worked out from the molar mass of the structure shown. Counter-ions that a name gives are not always drawn.

Legend:
[1] = Cytotoxicity (MTT / CellTiter-Glo cell viability) in Vero-E6 cells; format: cell-based, African green monkey; settings: African green monkey, Vero-E6 cells, at MNCC, 48 h exposure, normalized to untreated control; mean 2x
Source text: (§1) An 80% viability threshold was established for selecting the compounds for further analysis.

[2] = Cytotoxicity (MTT / CellTiter-Glo cell viability) in Calu-3 cells; format: cell-based, human; settings: human, Calu-3 cells, at MNCC, 48 h exposure, normalized to untreated control; mean 2x
Source text: as §1

Vero-E6 and Calu-3 cells = test: Maximum non-cytotoxic concentration (MNCC) determination; format: cell-based; settings: 48 h
Source text: as §1

Vero-E6 cells = test: Cytotoxicity (MTT / CellTiter-Glo cell viability) in Vero-E6 cells; format: cell-based, African green monkey; settings: at MNCC, 48 h exposure, normalized to untreated control, mean 2x
Source text: as §1

Calu-3 cells = test: Cytotoxicity (MTT / CellTiter-Glo cell viability) in Calu-3 cells; format: cell-based, human; settings: at MNCC, 48 h exposure, normalized to untreated control, mean 2x
Source text: as §1

[3] = doses commonly administered in human treatments; ref Byakika-Kibwika et al., 2012 (ASi); Nicol et al., 2020 (CQ, HCQ); Gonzalez Canga et al., 2008 (IVM); Bhatia et al., 1986 (PQ); cited from earlier work
[4] = CC50 determination in Vero E6 cells; settings: African green monkey
Source text: (§2) DMSO was used as a negative control. To calculate the IC50 and CC50, a 4-parameter nonlinear regression sigmoidal concentration-response function was undertaken using the Prism 10 software package (GraphPad, Boston, MA, USA).

SARS-CoV-2 = system: SARS-CoV-2; set-up: method as in Gendrot et al., 2020c; settings: other studies; ref Gendrot et al., 2020c; cited from earlier work
Vero E6 cells = test: CC50 determination in Vero E6 cells; settings: Vero E6
Source text: as §2

[5] = CC50 (Figure 4 curve), Vero-E6, sigmoidal 4PL fit

Molecule	viability at 48 h [1]	viability at 48 h [2]	MNCC Concentration (Vero-E6 and Calu-3 cells)	% viability Vero E6 (Vero-E6 cells)	% viability Calu-3 (Calu-3 cells)	other results
CCO[C@H]1O[C@@H]2O[C@@]3(C)CC[C@H]4[C@H](C)CC[C@@H]([C@H]1C)[C@@]24OO3 [Arteether (AE), Arteether]	104%	97%	125 µM			
CCCCN(CCCC)CC(O)c1cc(Cl)cc2c1-c1ccc(Cl)cc1/C2=C/c1ccc(Cl)cc1 (stereo not shown) [Lumefantrine (LUM), Lumefantrine]	86%	86%	250 µM			
COc1ccc2nc3cc(Cl)ccc3c(Nc3cc(CN4CCCC4)c(O)c(CN4CCCC4)c3)c2n1 [Pyranoridine (PNO), Pyranoridine]			5 µM	91%	78%	% viability Calu-3 (Calu-3 cells; listed as PNO): < 80%
CCN(CCO)CCCC(C)Nc1ccnc2cc(Cl)ccc12 (stereo not shown) [Hydroxychloroquine sulfate (HCQ), Hydroxychloroquine sulfate]		< 80%		47%	64%	% viability Vero E6 (Vero-E6 cells; listed as HCQ sulfate): < 80%; Cmax (maximum plasma concentration) [3]: 0.13 µg/mL; CC50 at 72 h ([4]; CC50% in µg/mL, Vero E6): 23.2 µg/mL; CC50 at 72 h ([4]; CC50%, Vero E6): 72.1 µM; CC50 at 72 h [4, 5]: 72.1 µM
CCN(CC)CCCC(C)Nc1ccnc2cc(Cl)ccc12 (stereo not shown) [Chloroquine diphosphate (CQ), Chloroquine diphosphate]	103%	105%	5 µM			EC50 (SARS-CoV-2): 2100 nM; EC90 (SARS-CoV-2): 3.8 µM; Cmax (maximum plasma concentration) [3]: 2.70 µg/mL; CC50 at 72 h ([4]; CC50% in µg/mL, Vero E6): 17 µg/mL; CC50 at 72 h ([4]; CC50%, Vero E6): 53.2 µM; CC50 at 72 h [4, 5]: 57.1 µM
CN1CCN(CCCN2c3ccccc3Sc3ccc(Cl)cc32)CC1 [Prochlorperazine (PCPZ), Prochlorperazine]	80%	< 80%	30 µM		77%	
C=C[C@H]1C[N@@]2CC[C@H]1C[C@H]2[C@H](O)c1ccnc2ccc(OC)cc12 [Quinine Sulfate (QN), Quinine Sulfate]	< 80%	90%	5 µM	74%		
OC(c1cc(C(F)(F)F)nc2c(C(F)(F)F)cccc12)C1CCCCN1 (stereo not shown) [Mefloquine (MQ), Mefloquine]	105%	82%	30 µM			
CCN(CC)Cc1cc(Nc2ccnc3cc(Cl)ccc23)ccc1O [Amodiaquine (AQ), Amodiaquine]	84%	82%	20 µM			
CCc1nc(N)nc(N)c1-c1ccc(Cl)cc1 [Pyrimethamina (PYR), Pyrimethamina]	94%	92%	125 µM			
O=C(Nc1cccc(C2=NCCN2)c1)Nc1cccc(C2=NCCN2)c1 [Imidocarb (IMI), Imidocarb]	92%	106%				
Ivermectin [Ivermectin Liquida (IVM-li)]			30 µM	85%	87%	
Ivermectin [Ivermectin Farmacia (IVM-f)]			75 µM	101%	67%	% viability Calu-3 (Calu-3 cells; listed as IVM-f): < 80%
C[C@H]1[C@H](N2CCS(=O)(=O)CC2)O[C@@H]2O[C@@]3(C)CC[C@H]4[C@H](C)CC[C@@H]1[C@@]24OO3 [Artemisone (ASO), Artemisone]	92%	93%	125 µM			
C[C@H]1[C@H](OC(=O)CCC(=O)O)O[C@@H]2O[C@@]3(C)CC[C@H]4[C@H](C)CC[C@@H]1[C@@]24OO3 [Artesunate injection (ASi), Artesunate]			50 µM	81%	82%	MNCC Concentration (Vero-E6 and Calu-3 cells; listed as ASi): 50 µM; Cmax (maximum plasma concentration) [3]: 3.30 µg/mL; CC50 at 72 h ([4]; CC50% in µg/mL, Vero E6): 27 µg/mL; CC50 at 72 h ([4]; CC50%, Vero E6): 70.3 µM
CC[C@H]1OC(=O)[C@H](C)[C@@H](O[C@H]2C[C@@](C)(OC)[C@@H](O)[C@H](C)O2)[C@H](C)[C@@H](O[C@@H]2O[C@H](C)C[C@H](N(C)C)[C@H]2O)[C@](C)(O)C[C@@H](C)CN(C)[C@H](C)[C@@H](O)[C@]1(C)O [Azithromycin dehydrate (AZH), Azithromycin dehydrate]	92%	87%	30 µM			
CN(C)c1ccc2nc3ccc(=[N+](C)C)cc-3sc2c1 [Methylene Blue Injection (MBi), Methylene Blue]	84%	89%	5 µM			
COc1cc(NC(C)CCCN)c2ncccc2c1 (stereo not shown) [Primaquine Phosphate (PQ), Primaquine Phosphate]	106%	87%	15 µM			Cmax (maximum plasma concentration) [3]: 0.05 µg/mL; CC50 at 72 h ([4]; CC50% in µg/mL, Vero E6): 5.5 µg/mL; CC50 at 72 h ([4]; CC50%, Vero E6): 21.2 µM; CC50 at 72 h [4, 5]: 21.2 µM
Ferroquine [Ferroquine (FQ)]			5 µM	75%	63%	% viability Vero E6 (Vero-E6 cells; listed as FQ): < 80%
C[C@H]1[C@H](OC(=O)CCC(=O)O)O[C@@H]2O[C@@]3(C)CC[C@H]4[C@H](C)CC[C@@H]1[C@@]24OO3 [Artesunic acid (AS), Artesunic acid]	< 80%	< 80%	125 µM	74%	74%	
CCN(CCO)CCCC(C)Nc1ccnc2cc(Cl)ccc12 (stereo not shown) [Hydroxychloroquine Minsa (HCQ-m), Hydroxychloroquine]				72%	84%	% viability Vero E6 (Vero-E6 cells; listed as HCQ-m): < 80%
NC(=O)c1ncn([C@@H]2O[C@H](CO)[C@@H](O)[C@H]2O)n1 [Ribavirin (RIB), Ribavirin]	104%	91%	250 µM			
C[C@H]1[C@@H](OCc2ccc(C(=O)O)cc2)O[C@@H]2O[C@@]3(C)CC[C@H]4[C@H](C)CC[C@@H]1[C@@]24OO3 [Artelinic Acid (AA), Artelinic Acid]			30 µM	100%	92%	
COc1c(C)c2c(c(O)c1C/C=C(\C)CCC(=O)O)C(=O)OC2 [Mycophenolic acid (MYC), Mycophenolic acid]	107%	109%	5 µM			
CC[C@H](C)[C@H]1O[C@]2(CC[C@@H]1C)C[C@@H]1C[C@@H](C/C=C(\C)[C@@H](O[C@H]3C[C@H](OC)[C@@H](O[C@H]4C[C@H](OC)[C@@H](O)[C@H](C)O4)[C@H](C)O3)[C@@H](C)/C=C/C=C3\CO[C@@H]4[C@H](O)C(C)=C[C@@H](C(=O)O1)[C@]34O)O2 [Ivermectin (IVM), Ivermectin]			8 µM	93%	87%	Cmax (maximum plasma concentration) [3]: 0.05 µg/mL; CC50 (Vero E6 cells): 74 µM; CC50% (Vero E6 cells): 64.8 µg/mL (≈ 74 µM)
CN(C)C(=O)COC(=O)Cc1ccc(OC(=O)c2ccc(NC(=N)N)cc2)cc1 [Camostat mesylate (CAM), Camostat mesylate]	118%	112%	50 µM			
